Entries after “also recorded” stand apart in the source; their conditions may differ.

The target of data set [1] is T1, recombinant human cathepsin L (Homo sapiens, UniProt P07711).
T1 sequence (P07711 18-333 limits assumed): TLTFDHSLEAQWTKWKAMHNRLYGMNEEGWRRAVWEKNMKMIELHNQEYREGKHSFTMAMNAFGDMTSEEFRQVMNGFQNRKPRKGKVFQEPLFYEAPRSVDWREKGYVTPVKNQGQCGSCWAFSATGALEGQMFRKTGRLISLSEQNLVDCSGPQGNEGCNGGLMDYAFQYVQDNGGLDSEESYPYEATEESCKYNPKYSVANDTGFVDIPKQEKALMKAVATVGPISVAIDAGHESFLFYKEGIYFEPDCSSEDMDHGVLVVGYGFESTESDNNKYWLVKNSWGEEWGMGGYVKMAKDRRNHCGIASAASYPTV
Nature of the data set: initial inhibitory screen of precursors against recombinant human cathepsin L. The data set is classed as biochemical. As to conditions: 10 μM. The protocol: An initial inhibitory screen of various precursors (see FIG. 3A and FIG. 3B) was performed at 10 μM against recombinant human cathepsin L. The percent inhibition of each precursor is shown below its corresponding precursor in FIG. 3A and FIG. 3B. Precursor 301 was identified as a lead precursor with a 95±3% inhibition. In some embodiments, one or more of the 2, 3, 5 and/or 6 positions are occupied by an aryl group. Examples of suitable aryl groups include NHPh, OPh or homologs thereof.

Data set [2] has as its target T2, Cathepsin G (Homo sapiens, UniProt P08311).
T2 sequence (P08311 21-244): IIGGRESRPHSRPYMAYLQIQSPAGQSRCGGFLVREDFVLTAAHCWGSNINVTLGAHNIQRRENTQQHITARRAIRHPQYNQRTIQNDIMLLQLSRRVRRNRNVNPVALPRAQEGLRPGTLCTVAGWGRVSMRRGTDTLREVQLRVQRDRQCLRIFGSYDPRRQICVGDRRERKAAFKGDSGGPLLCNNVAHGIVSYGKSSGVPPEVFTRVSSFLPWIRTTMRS
Nature of the data set: selectivity panel inactivation kinetics, Cathepsin G. Type of data set: biochemical. To be noted: serine cathepsin G. The text has this: (§1) This panel of enzymes included cysteine cathepsins, an aspartyl cathepsin, a serine cathepsin, a cysteine containing enzyme PTP, and a serine protease. The second order inactivation rate constants were thus determined by performing inactivation kinetics under a pseudo-first order condition (Table 1). […] Furthermore, no reactivity was observed against other panel of enzymes (e.g. aspartyl cathepsin D, serine cathepsin G, and a low pKa cysteine containing enzyme hPTP1B, and serine protease trypsin). A remarkable selectivity profile observed for compound 100 in these experiments is noteworthy, and thus is thought to lend itself well for the development of cathepsin L probes.
(§2) Table 1 depicts second order enzyme inactivation rate constants (kinact) of compound 100 against a panel of closely-related enzymes. Relative Selectivity Factor (RSF)=kinact (Cathepsin L)/kinact (other enzyme); NI*=no inhibition at 0.1 mM of compound 100 in 1 h, NA**=Not Applicable.

In data set [3] the target is T3, Cathepsin K (Homo sapiens, UniProt P43235).
T3 sequence (P43235 115-329): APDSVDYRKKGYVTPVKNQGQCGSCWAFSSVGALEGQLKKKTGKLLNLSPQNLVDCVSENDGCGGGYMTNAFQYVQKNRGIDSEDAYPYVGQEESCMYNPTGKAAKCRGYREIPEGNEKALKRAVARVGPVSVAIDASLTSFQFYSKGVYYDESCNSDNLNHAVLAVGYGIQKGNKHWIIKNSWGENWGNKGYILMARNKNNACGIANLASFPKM
Nature of the data set: selectivity panel inactivation kinetics, Cathepsin K. The data set is classed as biochemical. As to conditions: kinact (Cathepsin L)/kinact (Cathepsin K); fold.
From the text: as §1, §2

Data set [4] relates to intracellular cathepsin L activity in MDA-MB-231 cells. Nature of the data set: intracellular cathepsin L activity in MDA-MB-231 cells with cell-permeable fluorescent substrate. Type of data set: cell-based. The source says: Cell-specific and tissue-specific microenvironments are highly dynamic, and can have a dramatic impact on enzymatic activities and their in vivo function. A direct quantitative reporter of cathepsin L activity in living cancer cells is more desirable for dissecting its role in promoting metastatic cancer. Thus an activity-dependent small molecule probe with desirable cell permeability is urgently needed. […] This cell line is known to overexpress cathepsin L, thereby promoting invasion. A commercial cell-permeable fluorescent substrate of cathepsin L (Enzo LifeSciences, Inc.) was utilized to assess the intracellular inhibitory efficacy of compound 100.
Specifically, the effect of cathepsin L inhibitor 100 on intracellular cathepsin L activity in metastatic breast cancer MDA-MB-231 cell line was examined by fluorescence. Control cells and cells exposed to compound 100 were incubated with (a) vehicle (DMSO 0.05%). The non-control cells were also incubated with compound 100 (750 nM) overnight (22 h). […] Bright-field, fluorescence and merged images were obtained. […] The results are representative of three independent experiments. The effectiveness of cathepsin L inhibitor 100 was also evaluated using a functional wound-healing assay (FIG. 6A to 6F).

The target in data set [5] is Cathepsin D (Homo sapiens, UniProt P07339). Nature of the data set: selectivity panel inactivation kinetics, Cathepsin D. As to conditions: aspartyl cathepsin D. The data set is classed as biochemical.
Cathepsin D, sequence (P07339 65-412, species assumed): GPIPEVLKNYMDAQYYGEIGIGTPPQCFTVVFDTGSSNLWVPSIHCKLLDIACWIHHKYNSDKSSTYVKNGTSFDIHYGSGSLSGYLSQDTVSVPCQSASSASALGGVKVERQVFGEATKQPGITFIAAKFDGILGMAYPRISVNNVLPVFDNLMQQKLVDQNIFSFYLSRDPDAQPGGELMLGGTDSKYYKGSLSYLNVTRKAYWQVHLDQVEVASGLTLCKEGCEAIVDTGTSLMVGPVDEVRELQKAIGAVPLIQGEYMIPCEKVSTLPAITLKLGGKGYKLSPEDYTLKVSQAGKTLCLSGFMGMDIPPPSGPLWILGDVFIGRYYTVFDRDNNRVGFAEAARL
From the text: as §1, §2

Data set [6] addresses T4, active recombinant human cathepsin L (Homo sapiens, UniProt P07711).
T4 construct: active recombinant human cathepsin L
The data set can be described thus: inhibition and inactivation kinetics of cathepsin L, hydrolysis of fluorescent substrate Z-Phe-Arg-(7-Amino-4-methylcoumarin). The data set is classed as biochemical.
From the text: Based on this initial inhibitory screen compound 100 (FIG. 1), was proposed and successfully synthesized from precursor 301 using a multi-step synthetic methodology (FIG. 4A and FIG. 4B). […] FIG. 5 depicts a progress curve for cathepsin L-catalyzed hydrolysis of fluorescent substrate, Z-Phe-Arg-(7-Amino-4-methylcoumarin) with various concentration of compound 100. […] The dose-dependent progress curves were utilized to obtain the second order cathepsin L inactivation rate constant (kinact). […] The mode of inhibition was irreversible because no significant recovery of enzyme activity could be achieved, even after a very large dilution of inactivated reaction mixture.
as §1, §2

The target in data set [7] is Cathepsin S (Homo sapiens, UniProt P25774). Nature of the data set: selectivity panel inactivation kinetics, Cathepsin S. As to conditions: kinact (Cathepsin L)/kinact (Cathepsin S); fold. Type of data set: biochemical.
Cathepsin S, sequence (P25774 115-331, species assumed): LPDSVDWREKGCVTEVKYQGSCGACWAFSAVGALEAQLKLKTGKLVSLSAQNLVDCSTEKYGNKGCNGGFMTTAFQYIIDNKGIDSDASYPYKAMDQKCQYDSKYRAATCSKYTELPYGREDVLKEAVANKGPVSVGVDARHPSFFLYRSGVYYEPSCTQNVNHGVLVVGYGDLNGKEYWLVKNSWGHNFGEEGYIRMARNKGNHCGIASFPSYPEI
From the text: as §1, §2

Data set [8] has as its target T5, hPTP1B (Homo sapiens, UniProt P18031).
T5 sequence (P18031 1-435): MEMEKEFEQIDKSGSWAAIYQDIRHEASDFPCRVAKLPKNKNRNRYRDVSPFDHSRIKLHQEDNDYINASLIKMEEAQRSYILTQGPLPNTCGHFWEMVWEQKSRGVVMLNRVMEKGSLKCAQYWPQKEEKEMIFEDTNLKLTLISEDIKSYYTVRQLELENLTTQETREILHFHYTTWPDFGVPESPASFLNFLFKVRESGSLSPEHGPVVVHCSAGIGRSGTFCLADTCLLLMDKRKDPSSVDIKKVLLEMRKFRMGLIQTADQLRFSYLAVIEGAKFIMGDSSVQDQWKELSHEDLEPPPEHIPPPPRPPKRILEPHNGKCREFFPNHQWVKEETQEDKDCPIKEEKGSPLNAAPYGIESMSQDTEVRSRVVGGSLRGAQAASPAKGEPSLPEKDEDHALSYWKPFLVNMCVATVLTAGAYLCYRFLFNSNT
Nature of the data set: selectivity panel inactivation kinetics, hPTP1B. The data set is classed as biochemical.
From the text: as §1, §2

Data set [9] relates to Trypsin. The data set can be described thus: selectivity panel inactivation kinetics, Trypsin. Type of data set: biochemical. To be noted: serine protease trypsin.
From the text: as §1, §2

Data set [10] has as its target Cathepsin B (Homo sapiens, UniProt P07858). The data set can be described thus: selectivity panel inactivation kinetics, Cathepsin B. To be noted: kinact (Cathepsin L)/kinact (Cathepsin B); fold. The data set is classed as biochemical.
From the text: as §1, §2

In data set [11] the test system is MDA-MB-231 breast cancer cells. Nature of the data set: wound healing assay, cell migration. The data set is classed as cell-based. As to conditions: MDA-MB-231 cells, 750 nM, 0, 7 and 22 hrs. The protocol: MDA-MB-231 cells were grown in an eight-well glass dish overnight before treating with DMSO (control, 0.05%, FIGS. 6A, 6B and 6C), and compound 100 (750 nM, FIGS. 6D, 6E and 6F). After creating the wounds, images were taken at three different time intervals: t=0 hr (FIG. 6A and FIG. 6D), 7 hrs (FIG. 6B and FIG. 6E), and 22 hrs (FIG. 6C and FIG. 6F). Representative images of three independent experiments are shown. The dotted lines indicate the edge of the wound at time zero, and the arrows indicate the area of wound closure.
FIG. 7 depicts wound closure, a direct measure of cell migratory potential, as calculated using the following equation: % Wound Closure=[(At=0h−At=22h)/At=0h]×100%, where At=0h is the area of the wound measured immediately after the scratch, and At=22h is the area of the wound after 22 hrs. The figure represents a statistical analysis by three independent experiments using the unpaired Student's t test. The data were evaluated as the mean±1 standard deviation. The image analysis were performed by ImageJ software.

Take `C=CS(=O)(=O)Oc1ccc(Br)cc1` [Precursor 301]: in [1], the percent inhibition was 95±3%.
By IC50 is commonly meant the concentration needed to halve the response being measured. As to `CC(C)C[C@@H](/C=C/S(=O)(=O)Oc1ccc(Br)cc1)NC(=O)[C@H](Cc1ccccc1)NC(=O)OCc1ccccc1` [compound 100], the reactivity entry in [2], in [5], in [8] and in [9] was “no reactivity” in each case. The “RSF (Relative Selectivity Factor)” value was 100 in data set [3], 1 in [6] (kinact (Cathepsin L)/kinact (Cathepsin L)), 13 in data set [7] and 44,000 in data set [10]. The cell permeability result in data set [4] is recorded as “cell permeable”. Besides, the “intracellular substrate turnover (green fluorescence)” value in data set [4] (750 nM, overnight (22 h), compared to control) is “near complete loss of intracellular substrate turnover; also recorded: significant loss of green fluorescent signal intensity”. For the same compound, the “time to near complete loss of cathepsin L activity” value in [6] (15 nM compound 100) is “less than 100 s”. For the same compound, the IC50 in [6] (human cathepsin L) amounted to 3.6 ± 0.1 nM. Also, in data set [6] (no significant recovery of activity after very large dilution), the mode of inhibition result is “irreversible”. In addition, the “cell migratory potential (wound closure)” value in data set [11] is recorded as “reducing cell migratory potential”.

These data come from patent US9481876B2, “Cathepsin L inhibitors and probes comprising vinyl sulfonate moiety and methods of using same” (Research Foundation of the City University of New York, priority 2014, dated 2016).
